Target: T1, 1-deoxy-D-xylulose-5-phosphate reductoisomerase (DXR) (Escherichia coli, UniProt P45568)
T1 sequence (P45568 1-398): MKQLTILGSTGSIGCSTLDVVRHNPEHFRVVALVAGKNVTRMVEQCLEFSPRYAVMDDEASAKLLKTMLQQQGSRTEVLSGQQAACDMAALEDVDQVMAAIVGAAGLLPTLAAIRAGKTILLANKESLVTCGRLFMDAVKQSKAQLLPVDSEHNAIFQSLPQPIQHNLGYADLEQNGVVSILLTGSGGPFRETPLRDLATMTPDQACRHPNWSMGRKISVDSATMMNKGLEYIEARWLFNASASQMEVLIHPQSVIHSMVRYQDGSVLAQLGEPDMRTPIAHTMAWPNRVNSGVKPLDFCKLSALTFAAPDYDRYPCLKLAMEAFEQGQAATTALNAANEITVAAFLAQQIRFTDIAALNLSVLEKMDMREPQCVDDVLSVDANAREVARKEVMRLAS
Test: recombinant enzyme assay, NADPH consumption at […] nm
Assay type: biochemical

For `O=P(O)(O)CCCB(O)O` [compound 4, 3-Borono Propyl Phosphonic Acid], which IC50 is on record?
Its IC50 is 128 ± 3 µM.
